Values quoted from earlier work in PMC10535842, “Novel Thiazole-Based SIRT2 Inhibitors Discovered via Molecular Modelling Studies and Enzymatic Assays” (Pharmaceuticals, 2023).
“And” between values parts separate entries of the source, which are not always exact repeats. Identical values can stand only once.

Test system: SIRT2
Conditions: substrate RHKK(Ac)-AMC; read-out: SIRT2 IC50 (series B, compounds 27-111); cited from earlier work

Row | SMILES | IC50
1 | COc1ccc2ccccc2c1Cn1cnc2sc3c(c2c1=O)CCC(NCc1ccco1)C3 (centres unmarked) [Compound 27] | 5.24 µM
2 | O=c1c2c3c(sc2ncn1Cc1cccc2ccccc12)CC(NCc1ccco1)CC3 (centres unmarked) [Compound 28] | 7.61 µM
3 | O=c1c2c3c(sc2ncn1Cc1ccc2ccccc2c1)CC(NCc1ccco1)CC3 (centres unmarked) [Compound 29] | 11.7 µM
4 | O=c1c2c3c(sc2ncn1Cc1cccc2cccnc12)CC(NCc1ccco1)CC3 (centres unmarked) [Compound 30] | 4.16 µM
5 | COc1ccc2ccccc2c1Cn1cnc2sc3c(c2c1=O)CCC(NCc1c(C)nn(C)c1C)C3 (centres unmarked) [Compound 31] | 5.11 µM
6 | Cc1nn(C)c(C)c1CNC1CCc2c(sc3ncn(Cc4cccc5ccccc45)c(=O)c23)C1 (centres unmarked) [Compound 32] | 4.2 µM
7 | Cc1nn(C)c(C)c1CNC1CCc2c(sc3ncn(Cc4ccc5ccccc5c4)c(=O)c23)C1 (centres unmarked) [Compound 33] | 7.43 µM
8 | COc1ccc2ccccc2c1Cn1cnc2sc3c(c2c1=O)CCC(NCc1c(C)noc1C)C3 (centres unmarked) [Compound 34] | 4 µM
9 | Cc1noc(C)c1CNC1CCc2c(sc3ncn(Cc4cccc5ccccc45)c(=O)c23)C1 (centres unmarked) [Compound 35] | 1.85 µM
10 | COc1ccc(Cn2cnc3sc4c(c3c2=O)CCC(NCc2c(C)noc2C)C4)c2ccccc12 (centres unmarked) [Compound 36] | < 1 µM
11 | Cc1noc(C)c1CNC1CCc2c(sc3ncn(Cc4cccc5cccnc45)c(=O)c23)C1 (centres unmarked) [Compound 37] | 6.94 µM
12 | COc1ccc2ccccc2c1Cn1cnc2sc3c(c2c1=O)CCC(NCc1cccs1)C3 (centres unmarked) [Compound 38] | 6.03 µM
13 | O=c1c2c3c(sc2ncn1Cc1cccc2cccnc12)CC(NCc1cccs1)CC3 (centres unmarked) [Compound 39] | 2.56 µM
14 | COc1ccc2ccccc2c1Cn1cnc2sc3c(c2c1=O)CCC(NCc1ccccc1)C3 (centres unmarked) [Compound 40] | 21.1 µM
15 | O=c1c2c3c(sc2ncn1Cc1ccc2ccccc2c1)CC(NCc1ccccc1)CC3 (centres unmarked) [Compound 41] | 5.45 µM
16 | O=c1c2c3c(sc2ncn1Cc1cccc2cccnc12)CC(NCc1ccccc1)CC3 (centres unmarked) [Compound 42] | 2.5 µM
17 | COc1ccccc1Cn1cnc2sc3c(c2c1=O)CCC(NCc1ccccc1)C3 (centres unmarked) [Compound 43] | 10.4 µM
18 | COc1ccc2ccccc2c1Cn1cnc2sc3c(c2c1=O)CCC(NCc1cccc(F)c1)C3 (centres unmarked) [Compound 44] | 4.07 µM
19 | O=c1c2c3c(sc2ncn1Cc1cccc2cccnc12)CC(NCc1cccc(F)c1)CC3 (centres unmarked) [Compound 45] | 1.72 µM
20 | O=c1c2c3c(sc2ncn1Cc1cccc2cccnc12)CC(NCc1cccc(Cl)c1)CC3 (centres unmarked) [Compound 46] | 2.84 µM

Row | SMILES | IC50
21 | O=c1c2c3c(sc2ncn1Cc1cccc2cccnc12)CC(NCc1ccc(Cl)cc1)CC3 (centres unmarked) [Compound 47] | 1.27 µM
22 | O=c1c2c3c(sc2ncn1Cc1cccc2cccnc12)CC(NCc1ccccc1Cl)CC3 (centres unmarked) [Compound 48] | 3.8 µM
23 | COc1ccccc1CNC1CCc2c(sc3ncn(Cc4c(OC)ccc5ccccc45)c(=O)c23)C1 (centres unmarked) [Compound 50] | 2.24 µM
24 | COc1ccccc1CNC1CCc2c(sc3ncn(Cc4ccc5ccccc5c4)c(=O)c23)C1 (centres unmarked) [Compound 51] | 4.22 µM
25 | COc1ccccc1CNC1CCc2c(sc3ncn(Cc4cccc5cccnc45)c(=O)c23)C1 (centres unmarked) [Compound 52] | 5.61 µM
26 | COc1ccccc1CNC1CCc2c(sc3ncn(Cc4ccccc4OC)c(=O)c23)C1 (centres unmarked) [Compound 53] | 9.59 µM
27 | COc1cccc(CNC2CCc3c(sc4ncn(Cc5c(OC)ccc6ccccc56)c(=O)c34)C2)c1 (centres unmarked) [Compound 54] | 1.9 µM
28 | COc1cccc(CNC2CCc3c(sc4ncn(Cc5ccccc5OC)c(=O)c34)C2)c1 (centres unmarked) [Compound 55] | 13.4 µM
29 | COc1ccc(CNC2CCc3c(sc4ncn(Cc5c(OC)ccc6ccccc56)c(=O)c34)C2)cc1 (centres unmarked) [Compound 56] | < 1 µM and 0.65 µM
30 | COc1ccc(CNC2CCc3c(sc4ncn(Cc5cccc6ccccc56)c(=O)c34)C2)cc1 (centres unmarked) [Compound 57] | 3.2 µM
31 | COc1ccc(CNC2CCc3c(sc4ncn(Cc5ccc6ccccc6c5)c(=O)c34)C2)cc1 (centres unmarked) [Compound 58] | 3.82 µM
32 | COc1ccc(CNC2CCc3c(sc4ncn(Cc5cccc6cccnc56)c(=O)c34)C2)cc1 (centres unmarked) [Compound 59] | 1.83 µM
33 | COc1ccc(NC2CCc3c(sc4ncn(Cc5cccc6cccnc56)c(=O)c34)C2)cc1 (centres unmarked) [Compound 60] | 2.48 µM
34 | Cc1ccc(NC2CCc3c(sc4ncn(Cc5cccc6cccnc56)c(=O)c34)C2)cc1 (centres unmarked) [Compound 61] | 4.25 µM
35 | O=c1c2c3c(sc2ncn1Cc1cccc2cccnc12)CC(Nc1ccc(F)cc1)CC3 (centres unmarked) [Compound 62] | < 1 µM and 0.97 µM
36 | COc1ccc2ccccc2c1Cn1cnc2sc3c(c2c1=O)CCC(NCc1cccnc1)C3 (centres unmarked) [Compound 63] | 1.45 µM
37 | O=c1c2c3c(sc2ncn1Cc1cccc2ccccc12)CC(NCc1cccnc1)CC3 (centres unmarked) [Compound 64] | 2.99 µM
38 | O=c1c2c3c(sc2ncn1Cc1cccc2cccnc12)CC(NCc1cccnc1)CC3 (centres unmarked) [Compound 65] | 2.92 µM
39 | COc1ccc2ccccc2c1Cn1cnc2sc3c(c2c1=O)CCC(NCc1ccncc1)C3 (centres unmarked) [Compound 66] | 1.2 µM
40 | O=c1c2c3c(sc2ncn1Cc1cccc2ccccc12)CC(NCc1ccncc1)CC3 (centres unmarked) [Compound 67] | 3.58 µM

Row | SMILES | IC50
41 | O=c1c2c3c(sc2ncn1Cc1ccc2ccccc2c1)CC(NCc1ccncc1)CC3 (centres unmarked) [Compound 68] | 3.14 µM
42 | O=c1c2c3c(sc2ncn1Cc1cccc2cccnc12)CC(NCc1ccncc1)CC3 (centres unmarked) [Compound 69] | 3.68 µM
43 | COc1ccc2ccccc2c1Cn1cnc2sc3c(c2c1=O)CCC(NCc1ccccn1)C3 (centres unmarked) [Compound 70] | 3.12 µM
44 | O=c1c2c3c(sc2ncn1Cc1cccc2ccccc12)CC(NCc1ccccn1)CC3 (centres unmarked) [Compound 71] | 7.68 µM
45 | O=c1c2c3c(sc2ncn1Cc1ccc2ccccc2c1)CC(NCc1ccccn1)CC3 (centres unmarked) [Compound 72] | 8.67 µM
46 | O=c1c2c3c(sc2ncn1Cc1cccc2cccnc12)CC(NCc1ccccn1)CC3 (centres unmarked) [Compound 73] | 2.61 µM
47 | COc1ccc(CNC2CCc3c(sc4ncn(Cc5c(OC)ccc6ccccc56)c(=O)c34)C2)cn1 (centres unmarked) [Compound 74] | 1.9 µM
48 | COc1ccc(CNC2CCc3c(sc4ncn(Cc5cccc6ccccc56)c(=O)c34)C2)cn1 (centres unmarked) [Compound 75] | 7.59 µM
49 | COc1ccc(CNC2CCc3c(sc4ncn(Cc5ccc6ccccc6c5)c(=O)c34)C2)cn1 (centres unmarked) [Compound 76] | 10.2 µM
50 | COc1ccc(CNC2CCc3c(sc4ncn(Cc5cccc6cccnc56)c(=O)c34)C2)cn1 (centres unmarked) [Compound 77] | 2.65 µM
51 | COc1ccc2ccccc2c1Cn1cnc2sc3c(c2c1=O)CCC(NCCc1cccnc1)C3 (centres unmarked) [Compound 78] | 10.3 µM
52 | O=c1c2c3c(sc2ncn1Cc1cccc2ccccc12)CC(NCCc1cccnc1)CC3 (centres unmarked) [Compound 79] | 9.57 µM
53 | O=c1c2c3c(sc2ncn1Cc1ccc2ccccc2c1)CC(NCCc1cccnc1)CC3 (centres unmarked) [Compound 80] | 8.68 µM
54 | COc1ccc2ccccc2c1Cn1cnc2sc3c(c2c1=O)CCC(NCCc1ccncc1)C3 (centres unmarked) [Compound 81] | 2.75 µM
55 | O=c1c2c3c(sc2ncn1Cc1cccc2ccccc12)CC(NCCc1ccncc1)CC3 (centres unmarked) [Compound 82] | 5.79 µM
56 | O=c1c2c3c(sc2ncn1Cc1ccc2ccccc2c1)CC(NCCc1ccncc1)CC3 (centres unmarked) [Compound 83] | 9.6 µM
57 | O=c1c2c3c(sc2ncn1Cc1cccc2ccccc12)CC(NCc1cncnc1)CC3 (centres unmarked) [Compound 84] | 6.45 µM
58 | O=c1c2c3c(sc2ncn1Cc1ccc2ccccc2c1)CC(NCc1cncnc1)CC3 (centres unmarked) [Compound 85] | 5.3 µM
59 | COc1ccc2ccccc2c1Cn1cnc2sc3c(c2c1=O)CCC(NCC1CCCCC1)C3 (centres unmarked) [Compound 86] | 1.65 µM
